This is an account of results in PubChem BioAssay (NCI).

Holding throughout (assay): DTP human tumour cell line panel, 48 h
Test [1] relates to KM20L2 colon.
Test [2] concerns DMS 114 small cell lung.
Test [3] relates to RXF-631 renal.
The test system of test [4] is SNB-78 CNS.
Test [5] relates to M19-MEL melanoma.
Test [6] relates to MDA-N.
In test [7] the test system is DLD-1 colon.
Test [8] has as its system XF 498 CNS.
The test system of test [9] is DMS 273 small cell lung.

By TGI is commonly meant the concentration giving total growth inhibition. A higher TGI goes with less potent growth arrest. As usually defined, the GI50 is the concentration that inhibits growth by half.

Several values for one entry are separate records, joined by “and”; a condition that tells them apart may be missing. Equal values may be shown once.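 Following 48 hours of exposure in 96-well plates, responses at five concentrations were used to interpolate endpoints linearly. At the GI50, growth is halved. TGI is the concentration that stops growth completely.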

With `Cc1nc(C(N)=O)c(N)n1CCN1CCN(C(=O)CCCCCCCCCCNC2N=CNc3nc[nH]c32)CC1` (stereo not given), the TGI in test [1], in test [2], in test [3], in test [4] and in test [5] was over 100 µM in each case.

In [6], `C[C@@H](NC(C#N)c1ccco1)c1ccccc1` (stereo not given in full) gave a TGI of over 100 µM.

Compound `O=[N+]([O-])c1ccccc1N=Nc1c(O)[nH]c2cccc(C(F)(F)F)c12` registered a TGI in test [6] of 33.3 µM.

`COc1cc2c(c3c1c(=O)c1ccccc1n3C)C=CC1(CCCC1)O2` returned a TGI in [6] of 29.3 µM.

Take `O=C1C2C3C=C4c5ccccc5N(c5ccccc5)C4(C2C(=O)N1c1ccccc1)C1C(=O)N(c2ccccc2)C(=O)C31` (stereo not given): the concentration for total growth inhibition (TGI) in test [7], in test [1], in [2], in [3], in [8] and in test [4] was over 100 µM throughout. The same compound came in with a TGI in test [5] of over 100 µM.

For the compound `CN(C(=O)/C=C/c1ccccc1)C1C2CN3CCC(O2)C13` (stereo not given), the total growth inhibition concentration (TGI) in test [7], in [1], in [2], in test [9], in [8] and in [4] was over 100 µM in each case.

On to `O=C1C[C@H]2CCCN2[C@@H](c2ccccc2)C1`, for which the TGI in test [1], in test [3], in [9], in test [8], in test [4] and in test [5] was over 100 µM throughout.

In test [6], `CN(C)CCNC(=O)Cn1ccc(=O)c2cc([N+](=O)[O-])ccc21` displayed a TGI of over 100 µM.

On to `O=c1ncccn1[C@@H]1O[C@H](CO)[C@H](O)C1O` (stereo not given in full), for which the TGI in test [7], in [1], in test [2], in [9], in test [8] and in test [4] was over 100 µM each time. Besides, the TGI in [5] is over 100 µM.

As for `Nc1ncnc2c1ncn2C1OC(CSCC(F)(F)F)C(O)C1O` (stereo not given), the total growth inhibition concentration (TGI) in test [7], in test [1], in test [9], in test [8], in test [4] and in [5] was over 100 µM throughout.

In test [6], `COC(=O)C1=C(O)C(C(=O)OC)C2CC(=O)CC1C2(C)C` (stereo not given) showed a TGI of over 100 µM.

`N=C1C(O)C2(I)c3ccccc3N3C(=N)C(O)C4c5ccccc5N1C4C32` (stereo not given) registered a TGI in test [6] of over 100 µM.

`CCSCCCSCCSCC` had a TGI in test [6] of over 100 µM.

In test [6], `CC(=O)Nc1ccc(-c2cc(C(=O)O)c3cc4ccccc4cc3n2)cc1` returned a TGI of over 100 µM.

Regarding `c1cc[c]([Sn][c]2ccccc2)cc1`, the GI50 in test [7] was 15.4 µM; in [1] it was 13.4 µM; in test [2] it was 32.7 µM; in [3], 35.6 µM; in [9], 16.8 µM; in test [8], 13.3 µM. For the same compound, the GI50 in [4] is 39.8 µM. In addition, the TGI in [7] is 23.2 µM; in test [1] it was 18.8 µM; in [2], over 100 µM; in test [3], over 100 µM; in test [9] it was 35.9 µM; in [8], 17.9 µM. Moreover, the TGI in [4] is over 100 µM.

Consider `Cc1cc2c(C)nn(Cc3ccccc3)c2c(C(=O)O)c1C`, for which the TGI in test [1], in [3], in [9], in test [8], in [4] and in [5] was over 100 µM throughout.

In [6], `C/C(CC(O)(C(F)(F)F)C(F)(F)F)=N\NC(N)=O` yielded a TGI of over 10 µM.

`Oc1cc(Cc2ccccc2)c(Cc2ccccc2)cc1O` had a TGI in [6] of 3.04 µM.

As to `CC(=O)OCc1c2ccccc2c(C)c2c1cc(F)c1ccccc12`, the TGI in test [7] was 64.3 µM; in test [1] it was 87 µM; in [2], over 100 µM; in test [3], 63 µM; in test [9], 26.4 µM; in test [8] it was 45.2 µM. Besides, the TGI in test [4] amounted to 59.8 µM.

In the case of `CC12CCC(CC(=O)/C1=C(/Br)I)C2(C)C` (stereo not given), the TGI in test [6] is 26.7 µM.

As to `O=C(O)CCNS(=O)(=O)c1ccc(NC(=O)c2ccccc2)cc1`, the TGI in test [7], in [1], in [9], in test [8] and in [5] was over 100 µM in each case.

The compound `CNC(=S)Nc1ccc(OC)c2ccccc12` came in with a TGI in test [6] of over 10 µM.

Compound `O=C(Nc1cccc(Cl)c1)Nn1cnnc1` gave a TGI in [6] of over 100 µM.

For the compound `Cn1ccnc1CCc1c(Cl)cccc1Cl`, the TGI in [7], in [1], in [2], in test [9], in [4] and in test [5] was over 100 µM throughout.

On to `Cc1ccc(S(=O)(=O)SC/C=C\CSS(=O)(=O)c2ccc(C)cc2)cc1`, for which the TGI was > 100 µM and 47.7 µM in test [7]; over 31.6 µM in test [6]; > 88.5 µM and 49.1 µM in test [1]; > 43.7 µM and 35.3 µM in test [9]; > 100 µM and 43.9 µM in [8]; > 100 µM and 89.5 µM in [4]. The TGI in test [5] was > 100 µM and 95.1 µM. Also, in test [9], the GI50 is 3.92 µM and 18.3 µM.

For `COC(=O)C1=CO[C@@H](OC2CC(CO)C(O)C(O)C2O)[C@@H]2[C@@H](C)[C@@H](OC(=O)/C=C/c3ccccc3)[C@@H](O)[C@H]12` (stereo not given in full) (tested in a mixture with another compound), the TGI in test [7], in test [1], in [2], in [8] and in [5] was over 100 µM each time.

`O=C(/C=C/c1ccccc1)Oc1cccc2cccnc12`: the TGI in test [7] was 31.4 µM; in test [1], over 39.3 µM; in [9], 45.6 µM; in test [8], 72.5 µM; in test [4], over 100 µM; in test [5], over 100 µM.

For the compound `C=CCc1c(Cl)nc(Cl)nc1Cl`, in test [6], the TGI came out at 0.116 µM.

In the case of `C[N+](C)(C)CCC(=O)CC[N+](C)(C)C`, the TGI stood at 39.2 µM in test [7]; 55.4 µM in [1]; 44.2 µM in test [2]; 63.6 µM in [9]; 46.6 µM in test [8]; 50.8 µM in [4]. Further, the TGI in test [5] stood at 54.5 µM.

`CC1=C(C(=O)Nc2ccccc2C)C(c2ccc(Cl)cc2)C(C(=O)Nc2ccccc2C)=C(C)N1`: the TGI in [7], in test [2], in test [3], in [8], in test [4] and in test [5] was over 100 µM in each case.

Consider `C/C=C/C(C#N)O[Si](C)(C)C` (stereo not given), for which the TGI in test [7], in test [1], in test [2], in [9], in test [8] and in [4] was over 100 µM each time. The same compound gave a TGI in test [5] of over 100 µM.

As for `C=C(c1ccccc1)C1(O)CCCCC1N` (stereo not given), the TGI in test [7], in test [1], in test [2], in test [9], in test [8] and in [4] was over 100 µM each time. Moreover, in [5], the concentration for total growth inhibition (TGI) is over 100 µM.

Compound `CN(C)c1cc2ccccc2oc1=O` showed a TGI in [6] of over 100 µM.

For the compound `CN1CCN(C(=S)N(C)C(=O)c2ccco2)CC1`, in test [6], the TGI was over 100 µM.

On to `COC1=NCc2ccccc2-c2ccccc21`, for which the TGI in [7], in test [2], in test [9], in [8] and in test [4] was over 100 µM in each case.

With `O=C(COc1ccccc1Cl)N1N=C(c2ccc(Cl)cc2)CC1(O)c1ccccc1` (stereo not given), the TGI in test [7], in test [1], in test [3], in test [9], in [8] and in [4] was over 100 µM throughout. The TGI in [5] is over 100 µM.

The compound `NC(=O)CNC(=O)[C@@H]1CC(OCCC(=O)O)CN1C(=O)C1CCCN1C(=O)OCc1ccccc1` (stereo not given in full) returned a TGI in [6] of over 100 µM.

Regarding `O=C1Nc2ccccc2C1(O)C/C(=N/O)c1ccc2ccccc2c1` (stereo not given), the TGI in test [7], in [1], in test [2], in test [3], in test [8] and in [4] was over 100 µM each time. Also, the TGI in test [5] was over 100 µM.

In turn, `O=C1C=CC(=O)c2c1ccc1c3ccccc3n(Cc3ccc([N+](=O)[O-])cc3)c21` came in with a TGI in test [6] of over 100 µM.

As to `CCOC(=O)NC(=O)c1cn(CCN2CCN(C(=O)NCCCCCCNC(=O)N3CCN(CCn4cc(C(=O)NC(=O)OCC)c(=O)[nH]c4=O)CC3)CC2)c(=O)[nH]c1=O`, the TGI in test [1], in test [2], in test [3], in [9], in test [8] and in test [4] was over 100 µM in each case. For the same compound, the TGI in test [5] was over 100 µM.
